Where two headings read alike, the source gives them in different places.
Key:
[1] = test system: HIV (HTLV-IIIB) in H9 cells; experiment: Inhibition of human immunodeficiency virus multiplication in cell culture (HIV infection of H9 cells); format: cell-based; settings: Human immunodeficiency virus 1, 6-7 days, HIV antigen containing cells by immunofluorescence, read-out: Concentration for 50% inhibition (IC50) of human immunodeficiency virus multiplication in cell culture
Description: H9 cells, 10^5 cells per well on a 24 well plate, suspended in 2 ml RPMI-medium containing 10% fetal calf serum, 100 μg/ml penicillin, 10 μg/ml streptomycin sulfate and 2 μg/ml polybrene are exposed to HIV (HTLV-IIIB) and different concentrations of the inhibiting compounds. The plates are incubated at 37° C. in 5% CO2 for 6-7 days. The contents in each well is then homogenized with a pipette and transferred to a centrifuge tube. After centrifugation for 10 min at 1500 rpm the supernatent is removed and the cell pellet is analyzed by fixing in methanol on glass plates. Human HIV positive serum diluted 1:80 or 1:160 is added and incubated for 30 min at 37°. The plate is then washed with phosphate-buffered saline (PBS) containing Ca^2+ and Mg^2+. Sheep antihuman conjugate (FITC) is added and after a new incubation the plate is again washed with PBS. Contrast staining is done with Evans blue and after drying the frequency of HIV antigen containing cells is determined in a microscope.

[2] = molecular target: Hepatitis B virus polymerase (Hepatitis B virus genotype D subtype ayw, UniProt P03156); experiment: Inhibition of hepatitis B virus polymerase (reverse transcriptase) using a DNA template; format: biochemical; settings: compounds used as 5'-triphosphates
Chain of Hepatitis B virus polymerase (P03156 whole entry): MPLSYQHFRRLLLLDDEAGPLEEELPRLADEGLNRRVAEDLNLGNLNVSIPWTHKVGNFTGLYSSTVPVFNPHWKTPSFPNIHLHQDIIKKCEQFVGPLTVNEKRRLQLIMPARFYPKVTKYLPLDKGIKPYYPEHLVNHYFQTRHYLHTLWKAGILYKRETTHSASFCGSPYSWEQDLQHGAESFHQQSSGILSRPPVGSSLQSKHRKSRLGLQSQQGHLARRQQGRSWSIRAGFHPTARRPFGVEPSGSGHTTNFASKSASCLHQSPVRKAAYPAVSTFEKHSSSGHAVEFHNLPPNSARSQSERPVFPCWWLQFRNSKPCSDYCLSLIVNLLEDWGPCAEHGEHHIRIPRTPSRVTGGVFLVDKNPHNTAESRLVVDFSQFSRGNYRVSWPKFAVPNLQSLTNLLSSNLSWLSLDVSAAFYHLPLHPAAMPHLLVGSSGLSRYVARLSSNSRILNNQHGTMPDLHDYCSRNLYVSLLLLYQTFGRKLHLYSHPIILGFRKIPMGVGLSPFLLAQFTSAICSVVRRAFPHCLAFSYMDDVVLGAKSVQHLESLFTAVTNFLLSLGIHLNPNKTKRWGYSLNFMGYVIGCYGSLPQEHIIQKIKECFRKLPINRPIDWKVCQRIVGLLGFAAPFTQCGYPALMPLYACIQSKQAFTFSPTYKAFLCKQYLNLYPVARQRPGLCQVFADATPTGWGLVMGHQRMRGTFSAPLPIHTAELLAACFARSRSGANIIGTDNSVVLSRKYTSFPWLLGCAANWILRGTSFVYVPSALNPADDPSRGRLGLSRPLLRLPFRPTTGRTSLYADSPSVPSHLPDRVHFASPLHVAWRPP
Excerpt: (§1) There is no cell culture assay which can be used to determine the efficiacy of compounds against hepatitis B virus. However, the hepatitis B virus encodes a reverse transcriptase, Summer and Mason, Cell 29 (1982) 403-415, obligatory for hepatitis b virus replication. This enzyme, which is also a consituent of the hepatitis B virus particles, can be used to evaluate the inhibitory activity against hepatitis B virus of nucleoside analogues provided that these compounds are used as their metabolic products, 5'-triphosphates. […] The hepatitis B virus reverse transcriptase can, as all reverse transcriptases, use both RNA and DNA templates, and included in Table 2 is also the inhibition of duck hepatitis B virus polymerase using both DNA and RNA templates.
(§2) The assays were performed as described in Tao et al. Hepatitis B virus was for a long time considered to be a DNA virus with a viral DNA polymerase being part of the virus particles. However, it was discovered that the hepatitis B virus DNA polymerase activity was due to a reverse transcriptase and that this virus should be regarded as a retrovirus which, in contrast to other retroviruses, uses its DNA phase as genetic material in the virus particles. Summers and Mason. Hepatitis B viruses are therefore not related to DNA viruses such as herpes-viruses or adeno-virus, but rather are related to retroviruses such as HIV.

[3] = molecular target: Duck hepatitis virus polymerase (Duck hepatitis B virus, UniProt P03162); experiment: Inhibition of duck hepatitis B virus polymerase (reverse transcriptase) using DNA and RNA templates; format: biochemical; settings: compounds used as 5'-triphosphates
Chain of Duck hepatitis virus polymerase (P03162 whole entry): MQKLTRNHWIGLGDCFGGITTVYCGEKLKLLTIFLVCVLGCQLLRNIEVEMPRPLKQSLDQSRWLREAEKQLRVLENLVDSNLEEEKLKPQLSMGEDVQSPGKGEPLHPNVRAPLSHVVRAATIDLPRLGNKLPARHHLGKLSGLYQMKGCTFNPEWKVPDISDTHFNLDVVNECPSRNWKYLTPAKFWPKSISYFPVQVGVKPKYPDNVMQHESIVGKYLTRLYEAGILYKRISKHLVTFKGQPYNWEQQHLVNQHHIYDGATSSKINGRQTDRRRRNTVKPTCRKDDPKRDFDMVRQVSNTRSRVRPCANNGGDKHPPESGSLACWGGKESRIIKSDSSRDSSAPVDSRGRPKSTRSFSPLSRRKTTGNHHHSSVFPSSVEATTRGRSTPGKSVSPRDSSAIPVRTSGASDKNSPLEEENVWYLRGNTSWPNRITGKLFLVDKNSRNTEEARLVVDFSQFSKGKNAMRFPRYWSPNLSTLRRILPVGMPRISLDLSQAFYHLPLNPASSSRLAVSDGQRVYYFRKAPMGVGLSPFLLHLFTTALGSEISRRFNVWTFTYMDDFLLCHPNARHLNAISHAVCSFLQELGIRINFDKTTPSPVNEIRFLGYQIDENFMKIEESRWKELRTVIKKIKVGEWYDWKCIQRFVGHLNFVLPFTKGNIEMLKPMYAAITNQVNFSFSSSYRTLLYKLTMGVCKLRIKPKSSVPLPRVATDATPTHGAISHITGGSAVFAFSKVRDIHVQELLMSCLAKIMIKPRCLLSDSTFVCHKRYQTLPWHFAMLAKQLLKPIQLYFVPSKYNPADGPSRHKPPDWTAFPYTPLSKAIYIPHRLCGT
Excerpt: as §1, §2

[4] = monkeys, Tao et al., cited from earlier work; for absorption: oral; for Elimination half-lives: range given for both compounds together
[5] = DNA template, read-out: IC50, duck hepatitis virus polymerase, DNA template
[6] = RNA template, read-out: IC50, duck hepatitis virus polymerase, RNA template

SMILES | IC50 [1] [nM] | IC50 [2] [nM] | IC50 [3, 5] [nM] | IC50 [3, 6] [nM] | absorption [4] | Elimination half-lives [4] [h]
CC=Cc1cn([C@@H]2O[C@H](CO)[C@@H](O)[C@@H]2O)c(=O)[nH]c1=O [1-(β-D-arabinofuranosyl)-5-(1-propenyl)-uracil] | < 1000 | 240 | 340 | 540 | moderately well absorbed | 1.2 to 1.8
CCc1cn([C@@H]2O[C@H](CO)[C@@H](O)[C@@H]2O)c(=O)[nH]c1=O [1-(β-D-arabinofuranosyl)-5-ethyluracil] | 2000 |  |  |  |  | 
C=C(C)c1cn([C@@H]2O[C@H](CO)[C@@H](O)[C@@H]2O)c(=O)[nH]c1=O [1-(β-D-arabinofuranosyl)-5-isopropenyluracil] | 2000 |  |  |  |  | 
CCc1cn([C@H]2C[C@H](O)[C@@H](CO)O2)c(=O)[nH]c1=O [5-Ethyl-2'-deoxythymidine] |  | 250 | 900 | 740 |  | 
CCc1cn([C@H]2C[C@H](O)[C@@H](CO)O2)c(=O)[nH]c1=O [5-ethyl-2'-deoxyuridine] | 1000 |  |  |  |  | 
O=c1[nH]c(=O)n([C@H]2C[C@H](O)[C@@H](CO)O2)cc1CO [5-hydroxymethyl-2'-deoxyuridine] | < 1000 | 250 | 500 | 240 |  | 

The next lines start with results.

IC50 [1] [nM] | IC50 [2] [nM] | IC50 [3, 5] [nM] | IC50 [3, 6] [nM] | SMILES | absorption [4] | Elimination half-lives [4] [h]
1000 to 10000 |  |  |  | C=C(C)c1cn([C@H]2C[C@H](O)[C@@H](CO)O2)c(=O)[nH]c1=O [5-(1-isopropenyl)-2'-deoxyuridine] |  | 
< 1000 | 100 | 110 | 150 | CC=Cc1cn([C@H]2C[C@H](O)[C@@H](CO)O2)c(=O)[nH]c1=O [5-(1-propenyl)-2'-deoxyuridine] | moderately well absorbed | 1.2 to 1.8
< 1000 |  |  |  | O=c1[nH]c(=O)n([C@H]2C[C@H](O)[C@@H](CO)O2)cc1C1CC1 [5-cyclopropyl-2'-deoxyuridine] |  | 

Reference: patent publication US5215971A, “Antiviral pharmaceutical composition comprising 5-substituted pyrimidine nucleosides” (priority 1986, dated 1993)
